# How the values were obtained:
# Assay in all cases: relative viability (nuclei count vs DMSO), 5 days (fraction); higher = more cells survive
# NCI-H838 = tested on: NCI-H838
# In short: (§1)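 Nuclei were stained with Hoechst during a one-step fixation (final 0.05% Triton X-100, 1% formaldehyde, 1 ug/ml Hoechst) carried out 5 days after dosing, then counted on 4× images. The cells, lung cancer lines in 1536-well plates, had been dosed by pin tool the day after seeding with one drug alone or a fixed anchor-drug dose plus five library-drug doses (not always all listed) in √10 steps. Relative viability is the nuclei count in treated wells divided by that in vehicle wells, and each value is the median of duplicate plates.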
# NCI-H2087 = tested on: NCI-H2087
# In short: as §1
# NCI-H1993 = tested on: NCI-H1993
# In short: as §1
# NCI-H2023 = tested on: NCI-H2023
# In short: as §1
# EMC-BAC-2 = tested on: EMC-BAC-2
# In short: as §1
# NCI-H1395 = tested on: NCI-H1395
# In short: as §1
# NCI-H3122 = tested on: NCI-H3122
# In short: as §1
# BEN = tested on: BEN
# In short: as §1
# NCI-H2126 = tested on: NCI-H2126
# In short: as §1
# NCI-H596 = tested on: NCI-H596
# In short: as §1
# LOU-NH91 = tested on: LOU-NH91
# In short: as §1
# 201T = tested on: 201T
# In short: as §1
# LCLC-103H = tested on: LCLC-103H
# In short: as §1
# HARA = tested on: HARA
# In short: as §1
# NCI-H522 = tested on: NCI-H522
# In short: as §1
# HCC-44 = tested on: HCC-44
# In short: as §1
# NCI-H441 = tested on: NCI-H441
# In short: as §1
# NCI-H23 = tested on: NCI-H23
# In short: as §1
# NCI-H650 = tested on: NCI-H650
# In short: as §1
# NCI-H647 = tested on: NCI-H647
# In short: as §1
# NCI-H727 = tested on: NCI-H727
# In short: as §1
# NCI-H2347 = tested on: NCI-H2347
# In short: as §1
smiles,measurement,setting,value
CCN(CC)CCCCNc1ncc2cc(-c3cc(OC)cc(OC)c3)c(NC(=O)NC(C)(C)C)nc2n1 + Nc1ncn([C@H]2C[C@H](O)[C@@H](CO)O2)c(=O)n1 [Decitabine] (partner 2 µM),relative viability,NCI-H838; first compound 0.01 µM,0.481
same,relative viability,NCI-H838; first compound 0.03162 µM,0.484
same,relative viability,NCI-H838; first compound 0.1 µM,0.428
same,relative viability,NCI-H838; first compound 0.3162 µM,0.422
same,relative viability,NCI-H838; first compound 1 µM,0.418
same,relative viability,NCI-H2087; first compound 0.01 µM,0.314
same,relative viability,NCI-H2087; first compound 0.03162 µM,0.29
same,relative viability,NCI-H2087; first compound 0.1 µM,0.302
same,relative viability,NCI-H2087; first compound 0.3162 µM,0.284
same,relative viability,NCI-H2087; first compound 1 µM,0.317
same,relative viability,NCI-H1993; first compound 0.01 µM,0.671
same,relative viability,NCI-H1993; first compound 0.03162 µM,0.584
same,relative viability,NCI-H1993; first compound 0.1 µM,0.508
same,relative viability,NCI-H1993; first compound 0.3162 µM,0.757
same,relative viability,NCI-H1993; first compound 1 µM,0.589
same,relative viability,NCI-H2023; first compound 0.01 µM,0.221
same,relative viability,NCI-H2023; first compound 0.03162 µM,0.268
same,relative viability,NCI-H2023; first compound 0.1 µM,0.232
same,relative viability,NCI-H2023; first compound 0.3162 µM,0.236
same,relative viability,NCI-H2023; first compound 1 µM,0.206
same,relative viability,EMC-BAC-2; first compound 0.03162 µM,1
same,relative viability,EMC-BAC-2; first compound 0.1 µM,0.938
same,relative viability,EMC-BAC-2; first compound 0.3162 µM,0.948
same,relative viability,EMC-BAC-2; first compound 1 µM,0.876
same,relative viability,NCI-H1395; first compound 0.01 µM,0.8
same,relative viability,NCI-H1395; first compound 0.03162 µM,0.685
same,relative viability,NCI-H1395; first compound 0.1 µM,0.743
same,relative viability,NCI-H1395; first compound 0.3162 µM,0.735
same,relative viability,NCI-H1395; first compound 1 µM,0.598
same,relative viability,NCI-H3122; first compound 0.01 µM,0.493
same,relative viability,NCI-H3122; first compound 0.03162 µM,0.472
same,relative viability,NCI-H3122; first compound 0.1 µM,0.418
same,relative viability,NCI-H3122; first compound 0.3162 µM,0.448
same,relative viability,NCI-H3122; first compound 1 µM,0.42
same,relative viability,BEN; first compound 0.01 µM,0.691
same,relative viability,BEN; first compound 0.03162 µM,0.728
same,relative viability,BEN; first compound 0.1 µM,0.808
same,relative viability,BEN; first compound 0.3162 µM,0.797
same,relative viability,BEN; first compound 1 µM,0.572
same,relative viability,NCI-H2126; first compound 0.01 µM,0.555
same,relative viability,NCI-H2126; first compound 0.03162 µM,0.568
same,relative viability,NCI-H2126; first compound 0.1 µM,0.556
same,relative viability,NCI-H2126; first compound 0.3162 µM,0.603
same,relative viability,NCI-H2126; first compound 1 µM,0.63
same,relative viability,NCI-H596; first compound 0.03162 µM,1.15
same,relative viability,NCI-H596; first compound 0.1 µM,1.03
same,relative viability,NCI-H596; first compound 0.3162 µM,1.01
same,relative viability,NCI-H596; first compound 1 µM,0.893
same,relative viability,LOU-NH91; first compound 0.01 µM,0.799
same,relative viability,LOU-NH91; first compound 0.03162 µM,0.783
same,relative viability,LOU-NH91; first compound 0.1 µM,0.875
same,relative viability,LOU-NH91; first compound 0.3162 µM,0.801
same,relative viability,LOU-NH91; first compound 1 µM,0.804
same,relative viability,201T; first compound 0.01 µM,0.864
same,relative viability,201T; first compound 0.03162 µM,0.847
same,relative viability,201T; first compound 0.1 µM,0.86
same,relative viability,201T; first compound 0.3162 µM,0.857
same,relative viability,201T; first compound 1 µM,0.83
same,relative viability,LCLC-103H; first compound 0.01 µM,0.775
same,relative viability,LCLC-103H; first compound 0.03162 µM,0.782
same,relative viability,LCLC-103H; first compound 0.1 µM,0.758
same,relative viability,LCLC-103H; first compound 0.3162 µM,0.809
same,relative viability,LCLC-103H; first compound 1 µM,0.602
same,relative viability,HARA; first compound 0.01 µM,0.625
same,relative viability,HARA; first compound 0.03162 µM,0.557
same,relative viability,HARA; first compound 0.1 µM,0.636
same,relative viability,HARA; first compound 0.3162 µM,0.649
same,relative viability,HARA; first compound 1 µM,0.317
same,relative viability,NCI-H522; first compound 0.01 µM,0.625
same,relative viability,NCI-H522; first compound 0.03162 µM,0.573
same,relative viability,NCI-H522; first compound 0.1 µM,0.748
same,relative viability,NCI-H522; first compound 0.3162 µM,0.651
same,relative viability,NCI-H522; first compound 1 µM,0.548
same,relative viability,HCC-44; first compound 0.01 µM,0.944
same,relative viability,HCC-44; first compound 0.03162 µM,0.915
same,relative viability,HCC-44; first compound 0.1 µM,1.02
same,relative viability,HCC-44; first compound 0.3162 µM,0.949
same,relative viability,HCC-44; first compound 1 µM,0.979
same,relative viability,NCI-H441; first compound 0.01 µM,0.118
same,relative viability,NCI-H441; first compound 0.03162 µM,0.265
same,relative viability,NCI-H441; first compound 0.1 µM,0.242
same,relative viability,NCI-H441; first compound 0.3162 µM,0.261
same,relative viability,NCI-H441; first compound 1 µM,0.244
same,relative viability,NCI-H23; first compound 0.01 µM,0.297
same,relative viability,NCI-H23; first compound 0.03162 µM,0.307
same,relative viability,NCI-H23; first compound 0.1 µM,0.292
same,relative viability,NCI-H23; first compound 0.3162 µM,0.355
same,relative viability,NCI-H23; first compound 1 µM,0.326
same,relative viability,NCI-H650; first compound 0.01 µM,0.14
same,relative viability,NCI-H650; first compound 0.03162 µM,0.272
same,relative viability,NCI-H650; first compound 0.1 µM,0.33
same,relative viability,NCI-H650; first compound 0.3162 µM,0.332
same,relative viability,NCI-H650; first compound 1 µM,0.326
same,relative viability,NCI-H647; first compound 0.01 µM,0.429
same,relative viability,NCI-H647; first compound 0.03162 µM,0.383
same,relative viability,NCI-H647; first compound 0.1 µM,0.489
same,relative viability,NCI-H647; first compound 0.3162 µM,0.349
same,relative viability,NCI-H647; first compound 1 µM,0.361
same,relative viability,NCI-H727; first compound 0.01 µM,0.752
same,relative viability,NCI-H727; first compound 0.03162 µM,0.871
same,relative viability,NCI-H727; first compound 0.1 µM,0.871
same,relative viability,NCI-H727; first compound 0.3162 µM,1.09
same,relative viability,NCI-H727; first compound 1 µM,0.717
same,relative viability,NCI-H2347; first compound 0.01 µM,0.573
same,relative viability,NCI-H2347; first compound 0.03162 µM,0.62
same,relative viability,NCI-H2347; first compound 0.1 µM,0.623
same,relative viability,NCI-H2347; first compound 0.3162 µM,0.626
same,relative viability,NCI-H2347; first compound 1 µM,0.578
